The compounds below were run against human GLP-1 receptor (Homo sapiens (Human), UniProt P43220). Conditions: read-out: Mean EC50; cAMP, HTRF detection, 30 min at 37° C., HEK-293 cells expressing cloned human GLP-1 receptor.
human GLP-1 receptor, sequence (P43220 24-463): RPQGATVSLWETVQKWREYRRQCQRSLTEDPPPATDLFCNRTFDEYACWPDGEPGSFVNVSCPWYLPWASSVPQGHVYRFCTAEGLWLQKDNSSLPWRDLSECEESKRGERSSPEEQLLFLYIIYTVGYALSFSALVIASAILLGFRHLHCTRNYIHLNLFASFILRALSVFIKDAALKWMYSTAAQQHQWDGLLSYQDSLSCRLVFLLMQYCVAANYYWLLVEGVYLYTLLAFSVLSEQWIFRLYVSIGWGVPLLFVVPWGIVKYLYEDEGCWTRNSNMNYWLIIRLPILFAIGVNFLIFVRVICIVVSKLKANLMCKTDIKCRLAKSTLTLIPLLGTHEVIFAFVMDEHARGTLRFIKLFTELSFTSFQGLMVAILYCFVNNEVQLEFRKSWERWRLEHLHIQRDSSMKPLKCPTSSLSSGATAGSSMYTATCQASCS

EC50	SMILES
124 nM	Cc1nccc(Oc2ccc(C[C@H](NC(=O)[C@@H]3Cc4cc5c(cc4CN3C(=O)NC(C)(C)C)O[C@@H](c3ccc(OCc4ccc(Cl)c(Cl)c4)cc3)CO5)C(=O)O)cc2)c1C [Example 343, (S)-2-({(3S,8S)-7-tert-Butylcarbamoyl-3-[4-(3,4-dichloro-benzyloxy)-phenyl]-2,3,6,7,8,9-hexahydro-[1,4]dioxino[2,3-g]isoquinoline-8-carbonyl}-amino)-3-[4-(2,3-dimethyl-pyridin-4-yloxy)-phenyl]-propionic acid]
8 nM	CC[C@@H](c1ccccc1)N1Cc2cc3c(cc2C[C@H]1C(=O)N[C@@H](Cc1ccc(Oc2ccnc(C)c2C)cc1)C(=O)O)OC[C@H](c1cccc(OCc2ccc(Cl)c(Cl)c2)c1)O3 [Example 422, (S)-2-{[(3S,8S)-3-[3-(3,4-Dichloro-benzyloxy)-phenyl]-7-((S)-1-phenyl-propyl)-2,3,6,7,8,9-hexahydro-[1,4]dioxino[2,3-g]isoquinoline-8-carbonyl]-amino}-3-[4-(2,3-dimethyl-pyridin-4-yloxy)-phenyl]-propionic acid]
29 nM	CC[C@@H](c1ccccc1)N1Cc2cc3c(cc2C[C@H]1C(=O)N[C@@H](Cc1ccc(-c2ccnc4c2CCC4)cc1)C(=O)O)OC[C@H](c1ccc(OCc2ccc(Cl)c(Cl)c2)cc1)O3 [Example 182, (S)-2-{[(3S,8S)-3-[4-(3,4-Dichloro-benzyloxy)-phenyl]-7-((S)-1-phenyl-propyl)-2,3,6,7,8,9-hexahydro-[1,4]dioxino[2,3-g]isoquinoline-8-carbonyl]-amino}-3-[4-(6,7-dihydro-5H-[1]pyrindin-4-yl)-phenyl]-propionic acid]
182 nM	Cc1nccc(Oc2ccc(C[C@H](NC(=O)[C@@H]3Cc4cc5c(cc4CN3C(=O)OCc3ccccc3)O[C@@H](c3ccc(OCc4ccc(Cl)c(Cl)c4)cc3)CO5)C(=O)O)cc2)c1C [Example 302, (3S,8S)-8-{(S)-1-Carboxy-2-[4-(2,3-dimethyl-pyridin-4-yloxy)-phenyl]-ethylcarbamoyl}-3-[4-(3,4-dichloro-benzyloxy)-phenyl]-2,3,8,9-tetrahydro-6H-[1,4]dioxino[2,3-g]isoquinoline-7-carboxylic acid benzyl ester]
144 nM	Cc1nccc(-c2ccc(C[C@H](NC(=O)[C@@H]3Cc4cc5c(cc4CN3C(=O)NC(C)(C)C)O[C@@H](c3ccc(OCc4ccc(Cl)c(Cl)c4)cc3)CO5)C(=O)O)cc2)c1C [Example 251, (S)-2-({(3S,8S)-7-tert-Butylcarbamoyl-3-[4-(3,4-dichloro-benzyloxy)-phenyl]-2,3,6,7,8,9-hexahydro-[1,4]dioxino[2,3-g]isoquinoline-8-carbonyl}-amino)-3-[4-(2,3-dimethyl-pyridin-4-yl)-phenyl]-propionic acid]
32 nM	Cc1nccc(-c2ccc(C[C@H](NC(=O)[C@@H]3Cc4cc5c(cc4CN3C(=O)N[C@H](C)c3ccccc3)O[C@H](c3ccc(OCc4ccc(Cl)c(Cl)c4)cc3)CO5)C(=O)O)cc2)c1C [Example 429, (S)-2-{[(3R,8S)-3-[4-(3,4-Dichloro-benzyloxy)-phenyl]-7-((R)-1-phenyl-ethylcarbamoyl)-2,3,6,7,8,9-hexahydro-[1,4]dioxino[2,3-g]isoquinoline-8-carbonyl]-amino}-3-[4-(2,3-dimethyl-pyridin-4-yl)-phenyl]-propionic acid]
45 nM	Cc1nc(C(=O)N2Cc3cc4c(cc3C[C@H]2C(=O)N[C@@H](Cc2ccc(-c3ccnc(C)c3C)cc2)C(=O)O)OC[C@H](c2ccc(OCc3c(Cl)cccc3Cl)cc2)O4)c(C)o1 [Example 355, (S)-2-{[(3S,8S)-3-[4-(2,6-Dichloro-benzyloxy)-phenyl]-7-(2,5-dimethyl-oxazole-4-carbonyl)-2,3,6,7,8,9-hexahydro-[1,4]dioxino[2,3-g]isoquinoline-8-carbonyl]-amino}-3-[4-(2,3-dimethyl-pyridin-4-yl)phenyl]-propionic acid]
4 nM	Cc1ccccc1CN1Cc2cc3c(cc2C[C@H]1C(=O)N[C@@H](Cc1ccc(-c2ccnc(C)c2C)cc1)C(=O)O)OC[C@H](c1ccc(OCc2ccc(Cl)c(Cl)c2)cc1)O3 [Example 176, (S)-2-{[(3S,8S)-3-[4-(3,4-Dichloro-benzyloxy)-phenyl]-7-(2-methyl-benzyl)-2,3,6,7,8,9-hexahydro-[1,4]dioxino[2,3-g]isoquinoline-8-carbonyl]-amino}-3-[4-(2,3-dimethyl-pyridin-4-yl)-phenyl]-propionic acid]
76 nM	CC[C@@H](c1ccccc1)N1Cc2cc3c(cc2C[C@H]1C(=O)N[C@@H](Cc1ccc(-c2ccncc2)cc1)C(=O)O)OC[C@H](c1ccc(OCc2ccc(Cl)c(Cl)c2)cc1)O3 [Example 73, (S)-2-{[(3S,8S)-3-[4-(3,4-Dichloro-benzyloxy)-phenyl]-7-((S)-1-phenyl-propyl)-2,3,6,7,8,9-hexahydro-[1,4]dioxino[2,3-g]isoquinoline-8-carbonyl]-amino}-3-(4-pyridin-4-yl-phenyl)-propionic acid]
75 nM	Cc1nc(C(=O)N2Cc3cc4c(cc3C[C@H]2C(=O)N[C@@H](Cc2ccc(-c3ccnc(C)c3C)cc2)C(=O)O)OC[C@H](c2cccc(OCc3ccc(Cl)c(Cl)c3)c2)O4)c(C)o1 [Example 415, (S)-2-{[(3S,8S)-3-[3-(3,4-Dichloro-benzyloxy)-phenyl]-7-(2,5-dimethyl-oxazole-4-carbonyl)-2,3,6,7,8,9-hexahydro-[1,4]dioxino[2,3-g]isoquinoline-8-carbonyl]-amino}-3-[4-(2,3-dimethyl-pyridin-4-yl)-phenyl]-propionic acid]
31 nM	CC[C@@H](c1ccccc1)N1Cc2cc3c(cc2C[C@H]1C(=O)N[C@@H](Cc1ccc(Oc2ccnc(C)c2C)cc1)C(=O)O)OC[C@H](c1ccc(OCc2ccc(Cl)c(Cl)c2)cc1)O3 [Example 189, (S)-2-{[(3S,8S)-3-[4-(3,4-Dichloro-benzyloxy)-phenyl]-7-((S)-1-phenyl-propyl)-2,3,6,7,8,9-hexahydro-[1,4]dioxino[2,3-g]isoquinoline-8-carbonyl]-amino}-3-[4-(2,3-dimethyl-pyridin-4-yloxy)-phenyl]-propionic acid]

The next lines start with the compound.

SMILES	EC50
CC[C@@H](c1ccccc1)N1Cc2cc3c(cc2C[C@H]1C(=O)N[C@@H](Cc1ccc(-c2ccnc(C)c2C)cc1)C(=O)O)OC[C@H](c1ccc(OCc2ccc(Cl)c(Cl)c2)cc1)O3 [Example 179, (S)-2-{[(3S,8S)-3-[4-(3,4-Dichloro-benzyloxy)-phenyl]-7-((S)-1-phenyl-propyl)-2,3,6,7,8,9-hexahydro-[1,4]dioxino[2,3-g]isoquinoline-8-carbonyl]-amino}-3-[4-(2,3-dimethyl-pyridin-4-yl)-phenyl]-propionic acid]	5 nM
CCOc1ccc([C@H]2COc3cc4c(cc3O2)CN([C@@H](CC)c2ccccc2)[C@H](C(=O)N[C@@H](Cc2ccc(-c3ccnc(C)c3C)cc2)C(=O)O)C4)cc1 [Example 170, (S)-3-[4-(2,3-Dimethyl-pyridin-4-yl)-phenyl]-2-{[(3S,8S)-3-(4-ethoxy-phenyl)-7-((S)-1-phenyl-propyl)-2,3,6,7,8,9-hexahydro-[1,4]dioxino[2,3-g]isoquinoline-8-carbonyl]-amino}-propionic acid]	538 nM
CC[C@H]1CC[C@H](Oc2ccc([C@H]3COc4cc5c(cc4O3)CN(C(=O)c3nc(C)oc3C)[C@H](C(=O)N[C@@H](Cc3ccc(-c4ccnc(C)c4C)cc3)C(=O)O)C5)cc2)CC1 [Example 373, (S)-2-({(3S,8S)-7-(2,5-Dimethyl-oxazole-4-carbonyl)-3-[-4-(trans-4-ethyl-cyclohexyloxy)-phenyl]-2,3,6,7,8,9-hexahydro-[1,4]dioxino[2,3-g]isoquinoline-8-carbonyl}-amino)-3-[4-(2,3-dimethyl-pyridin-4-yl)-phenyl]-propionic acid]	187 nM
Cc1nc(C(=O)N2Cc3cc4c(cc3C[C@H]2C(=O)N[C@@H](Cc2ccc(-c3ccnc(C)c3C)cc2)C(=O)O)OC[C@H](c2ccc(OC[C@H]3CC[C@H](C)CC3)cc2)O4)c(C)o1 [Example 222, (S)-2-({(3S,8S)-7-(2,5-Dimethyl-oxazole-4-carbonyl)-3-[4-(trans-4-methyl-cyclohexyl-methoxy)-phenyl]-2,3,6,7,8,9-hexahydro-[1,4]dioxino[2,3-g]isoquinoline-8-carbonyl}-amino)-3-[4-(2,3-dimethyl-pyridin-4-yl)-phenyl]-propionic acid]	75 nM
CC[C@@H](c1ccccc1)N1Cc2cc3c(cc2C[C@H]1C(=O)N[C@@H](Cc1ccc(-c2ccnc(C)c2C)cc1)C(=O)O)OC[C@H](c1ccc(OCC2CCCCC2)cc1)O3 [Example 163, (S)-2-{[(3S,8S)-3-(4-Cyclohexylmethoxy-phenyl)-7-((S)-1-phenyl-propyl)-2,3,6,7,8,9-hexahydro-[1,4]dioxino[2,3-g]isoquinoline-8-carbonyl]-amino}-3-[4-(2,3-dimethyl-pyridin-4-yl)-phenyl]-propionic acid]	113 nM
Cc1noc(C)c1S(=O)(=O)N1Cc2cc3c(cc2C[C@H]1C(=O)N[C@@H](Cc1ccc(-c2ccc(C#N)cc2)cc1)C(=O)O)OCC(c1ccc(OCc2ccc(Cl)c(Cl)c2)cc1)O3 (stereo in doubt) [Example 128, (S)-3-(4′-Cyano-biphenyl-4-yl)-2-{[(S)-3-[4-(3,4-dichloro-benzyloxy)-phenyl]-7-(3,5-dimethyl-isoxazole-4-sulfonyl)-2,3,6,7,8,9-hexahydro-[1,4]dioxino[2,3-g]isoquinoline-8-carbonyl]-amino}-propionic acid]	178 nM
CC[C@@H](c1ccccc1)N1Cc2cc3c(cc2C[C@H]1C(=O)N[C@@H](Cc1ccc(-c2ccnc(C)c2C)cc1)C(=O)O)OC[C@H](c1ccc(OCC2CCCC2)cc1)O3 [Example 160, (S)-2-{[(3S,8S)-3-(4-Cyclopentylmethoxy-phenyl)-7-((S)-1-phenyl-propyl)-2,3,6,7,8,9-hexahydro-[1,4]dioxino[2,3-g]isoquinoline-8-carbonyl]-amino}-3-[4-(2,3-dimethyl-pyridin-4-yl)-phenyl]-propionic acid]	62 nM

Source: patent US9175003B2, “Substituted azoanthracene derivatives and intermediates for preparation thereof” (TransTech Pharma, LLC, priority 2009, dated 2015)
